Patent US8859628B2, “Method for preventing, treating and diagnosing disorders of protein aggregation” (priority 2003, dated 2014)
Entries after “also recorded” stand apart in the source; their conditions may differ.

How the values were obtained:
Aβ42 = molecular target: T1, Aβ42 (Homo sapiens, UniProt P05067); conditions: cited from earlier work
T1 construct: The importance of residues 1-42 (Aβ42) in Alzheimer's disease was highlighted

amyloid-beta peptide = conditions: cited from earlier work
TgCRND8 mice [1] = test: Morris Water Maze, spatial reference memory version, five-day trial paradigm (prevention study); type: in vivo, mouse; conditions: 6 months of age
Procedure: Age and sex-matched cohorts of TgCRND8 mice and non-transgenic littermates (n=35 in each cohort) were either untreated, or were given a compound of the present invention as indicated below at 30 mg/day/mouse beginning at age of about 6 weeks. The mice were followed for outcome measures cognitive function, brain Aβ levels, brain pathology, and survival at 4 months and 6 months of age.
Two cohorts entered the study at 6 weeks of age and outcomes were analyzed at 4- and 6-months of age. The body weight, coat characteristics and in cage behavior was monitored. All experiments were performed according to the Canadian Council on Animal Care guidelines.
(§1) Behavioral tests—After non-spatial pre-training, mice underwent place discrimination training for 5 days with 4 trials per day. Behavioral data was analyzed using a mixed model of factorial analysis of variance (ANOVA) with drug or genotype and training sessions as repeated measure factors.
The cognitive function of TgCRND8 mice was assessed using the spatial reference memory version of the Morris Water Maze using a five-day trial paradigm (FIGS. 1C-1H). […] The improved performance was also not due to nutritional or caloric effects because body weight, activity, and coat condition were not different between treated and untreated cohorts. […] Gender effects were not significant between any treatment group (p=0.85).

TgCRND8 mice [2] = test: Cerebral amyloid plaque burden (anti-Aβ immunostaining, image analysis); type: in vivo, mouse; conditions: for amyloid/plaque burden vs untreated (words) / mean plaque size: prevention
Procedure: (§2) Cerebral amyloid burden—Brains were removed and one hemisphere was fixed in 4% paraformaldehyde and embedded in paraffin wax in the mid saggital plane. To generate sets of systematic uniform random sections, 5 μm serial sections were collected across the entire hemisphere. Sets of sections at […] intervals were used for analyses (10-14 sections/set). Plaque were identified after antigen retrieval with formic acid, and incubated with primary anti-Aβ antibody (Dako M-0872), followed by secondary antibody (Dako StreptABCcomplex/horseradish kit). End products were visualized with DAB counter-stained with hematoxylin. Amyloid plaque burden was assessed using Leco IA-3001 image analysis software interfaced with Leica microscope and Hitachi KP-M1U CCD video camera. Vascular burden was analyzed similarly and a dissector was used to measure the diameter of affected vessels.
as §2, with “camera.” for “camera. Vascular burden was analyzed similarly and a dissector was used to measure the diameter of affected vessels.”

TgCRND8 mice [3] = test: Survival census (Kaplan-Meier); type: in vivo, mouse; conditions: vs untreated TgCRND8
Procedure: Survival Census—The probability of survival was assessed by the Kaplan-Meier technique, computing the probability of survival at every occurrence of death, thus making it suitable for small sample sizes. For the analyses of survival, 35 mice were used for each treatment group. The comparison between treatments was reported using the Tarone-Ware test.

non-Tg littermates = test: Morris Water Maze performance of treated non-Tg littermates; type: in vivo, mouse; conditions: treated vs untreated non-Tg
Procedure: as §1
(§3) Behavioral Test—Reversal Study—Mice entered the Morris water maze test with a hidden platform on day one without pretraining. Mice were tested for 3 days with six trials per day. On the fourth day, the platform was removed from the pool and each mouse received one 30-s swim probe trial. On the last day the animals underwent a cue test in order to evaluate swimming ability, eye sight and general cognition. The cue test is composed at the platform being placed in a different quadrant than that used for testing and is tagged with a flag. Animals are allowed 60 s to find the platform. […] Behavioural data was analysed using a mixed model of factorial analysis of variance (ANOVA) with drug or genotype and training sessions as repeated measure factors.

TgCRND8 mice [4] = test: Cerebral Aβ content (Aβ40 and Aβ42 kits on hemi-brain homogenates); type: in vivo, mouse; design: Total Aβ: unit not given here
Procedure: (§4) Plasma and Cerebral Aβ Content—Hemi-brain samples were homogenized in a buffered sucrose solution, followed by either 0.4% diethylamine/100 mM NaCl for soluble Aβ levels or cold formic acid for the isolation of total Aβ. After neutralization the samples were diluted and analyzed for Aβ40 and Aβ42 using commercially available kits (BIOSOURCE International). Each hemisphere was analyzed in triplicate with the mean±SEM reported. Western blot analyses were performed on all fractions using urea gels for Aβ species analyses. Aβ was detected using 6E10 (BIOSOURCE International) and Enhanced Chemiluminenscence (Amersham).
as §4, with “reported.” for “reported. Western blot analyses were performed on all fractions using urea gels for Aβ species analyses. Aβ was detected using 6E10 (BIOSOURCE International) and Enhanced Chemiluminenscence (Amersham).”

TgCRND8 mice [5] = test: Plasma Aβ levels; type: in vivo, mouse
Procedure: as §4
as §4, with “reported.” for “reported. Western blot analyses were performed on all fractions using urea gels for Aβ species analyses. Aβ was detected using 6E10 (BIOSOURCE International) and Enhanced Chemiluminenscence (Amersham).”

TgCRND8 mice [6] = test: Gliosis quantitation (GFAP astrocytes, CD68 microglia); type: in vivo, mouse; conditions: prevention
Text: Gliosis Quantitation—Five randomly selected, evenly spaced, sagittal sections were collected from paraformaldehyde-fixed and frozen hemispheres of treated and control mice. Sections were immunolabelled for astrocytes with anti-rat GFAP IgG2a (Dako; diluted 1:50) and for microglia with anti-rat CD68 IgG2b (Dako; 1:50).
Serial sagittal sections were stained with the astrocytic marker glial fibrillary acidic protein (GFAP) and quantitated for percent brain area covered by astrogliosis.

TgCRND8 mice [7] = test: Vascular amyloid burden; type: in vivo, mouse; conditions: prevention, 6 months of age
Procedure: as §2
Alzheimer's disease is characterized by the presence of both parenchymal and vascular amyloid deposits. In untreated 6 month old TgCRND8 mice approximately 0.03% of the brain area is associated with vascular amyloid.

TgCRND8 mice [8] = test: Morris Water Maze, spatial reference memory version, three-day trial paradigm (treatment/reversal study); type: in vivo, mouse; conditions: for cognitive function, treated TgCRND8 mice vs non-Tg littermates (words): 1 month treatment from 5 months of age, three-day paradigm
Procedure: A cohort entered the study at 5 months of age and outcomes were analyzed at 6-months of age. The body weight, coat characteristics and in cage behavior was monitored. All experiments were performed according to the Canadian Council on Animal Care guidelines.
as §3
The cognitive function of TgCRND8 mice was assessed using the spatial reference memory version of the Morris Water Maze using a three day trial paradigm (FIGS. 4-8).
Behavioural data was analysed using a mixed model of factorial analysis of variance (ANOVA) with drug and genotype as between subject variables and training sessions as within subject variable.
(§5) In these experiments, the dosage and oral administration of compounds, and the behavioral and neurochemical assays were the same as those employed in the above treatment experiments.

TgCRND8 mice [9] = conditions: mouse, in vivo
Text: Animals were sacrificed after one month of treatment and analysed for pathological outcomes.
as §5

[10] = 1 month treatment from 5 months of age
[11] = 1 month treatment, 30 mg/mouse/day from 5 months, analyzed at 6 months of age
[12] = 4 month prevention, 30 mg/mouse/day from 6 weeks of age
[13] = 6 month prevention, 30 mg/mouse/day from 6 weeks of age
[14] = 28 days treatment from 5 months of age

T1 sequence (P05067 672-713 limits assumed): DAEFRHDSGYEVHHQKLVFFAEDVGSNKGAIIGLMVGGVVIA

## OC1C(O)C(O)C(O)C(O)C1O (stereo not drawn) [chiro-inositol]
Aβ42
  structural transition from random to β-structure in Aβ42: epi- and scyllo- but not chiro-inositol were able to induce a structural transition

## O=P(O)(O)O[C@@H]1[C@H](O)[C@H](O)[C@@H](OP(=O)(O)O)[C@H](OP(=O)(O)O)[C@H]1O [inositol-1,4,5-triphosphate]
amyloid-beta peptide
  ability to inhibit amyloid-beta peptide fibrillogenesis: found not to be effective

## O=P(O)(O)O[C@@H]1[C@@H](O)[C@H](O)[C@@H](O)[C@H](O)[C@@H]1O [inositol-monophosphate]
amyloid-beta peptide
  ability to inhibit amyloid-beta peptide fibrillogenesis: found not to be effective

## OC[C@@H](O)[C@@H](O)[C@H](O)[C@H](O)CO [mannitol, reference compound]
TgCRND8 mice [1]
  cognitive function, treated TgCRND8 mice vs non-Tg littermates (words): significantly different from mannitol treated non-Tg littermates
  cognitive function, treated vs untreated TgCRND8 mice (words): had no effect on behavior; also recorded: indistinguishable from untreated TgCRND8 mice
TgCRND8 mice [1]; listed as Mannitol
  cognitive function, treated vs untreated TgCRND8 mice (words): not significantly different from untreated TgCRND8 mice
TgCRND8 mice [2]; 6 months of age
  amyloid/plaque burden vs untreated (words): did not alter the plaque load in TgCRND8 mice
TgCRND8 mice [2]; 6 months of age, listed as Mannitol
  amyloid/plaque burden vs untreated (words): indistinguishable from untreated TgCRND8 mice when plaque count was used as a measure of total plaque burden
TgCRND8 mice [3]
  effect on survival of TgCRND8 mice: had no effect on the survival of TgCRND8 mice; also recorded: not significantly different
non-Tg littermates
  effect on performance of non-Tg mice: had no effect on the behaviour of non-Tg mice

## O=P(O)(O)O[C@H]1[C@H](O)[C@@H](O)[C@H](OP(=O)(O)O)[C@@H](O)[C@H]1O [inositol-1,4-bisphosphate]
amyloid-beta peptide
  ability to inhibit amyloid-beta peptide fibrillogenesis: found not to be effective

## OC1C(O)C(O)C(O)C(O)C1O (stereo not drawn) [Epi-Inositol, epi-inositol]
TgCRND8 mice [1]
  cognitive function, treated vs untreated TgCRND8 mice (words): performed significantly better than untreated TgCRND8 mice
TgCRND8 mice [4]; [10]
  Aβ load vs untreated: Aβ load was significantly decreased
TgCRND8 mice [4]; [11]
  Total Aβ: 17271 ± 415
TgCRND8 mice [4]; [12]
  Total Aβ: 4802 ± 176
TgCRND8 mice [4]; [13]
  Total Aβ: 18464 ± 229
TgCRND8 mice [4]; prevention, 6 months of age
  brain Aβ levels compared with untreated: rose to levels similar to those observed in untreated TgCRND8 mice
TgCRND8 mice [5]; 1 month treatment
  Plasma Aβ Levels: 2158 ± 157 pg/mL
TgCRND8 mice [5]; 1 month treatment from 5 months of age, listed as epi-inositol
  effect on plasma Aβ levels in comparison to untreated (words): Neither myo-inositol, epi-inositol nor scyllo-inositol treatment had any effect on plasma Aβ levels
TgCRND8 mice [5]; 4 month prevention
  Plasma Aβ Levels: 1082 ± 164 pg/mL
TgCRND8 mice [5]; 6 month prevention
  Plasma Aβ Levels: 952 ± 56 pg/mL
TgCRND8 mice [5]; prevention, 4- and 6-months of age
  effect on plasma Aβ levels in comparison to untreated (words): Neither epi-inositol nor scyllo-inositol treatment had any effect on plasma Aβ levels
TgCRND8 mice [2]; [10]
  plaque burden vs untreated: not a significant decrease in the mean plaque size
TgCRND8 mice [2]; [11]
  Plaque Area: 459706 ± 49966 μm^2
  Plaque Count: 1342 ± 114
  Total Plaque Area/Total Brain Area: 0.134 ± 0.017%
TgCRND8 mice [2]; [12]
  Plaque Area: 65042 ± 5199 μm^2
  Plaque Count: 678 ± 64
  Total Plaque Area/Total Brain Area: 0.020 ± 0.001%
TgCRND8 mice [2]; [13]
  Plaque Area: 380456 ± 13498 μm^2
  Plaque Count: 979 ± 32
  Total Plaque Area/Total Brain Area: 0.096 ± 0.04%
TgCRND8 mice [2]; 6 months of age
  amyloid/plaque burden vs untreated (words): modest effect on amyloid burden
  mean plaque size: 370±9 μm^2
TgCRND8 mice [2]; 4 months of age
  mean plaque size: 95±4.3 μm^2
TgCRND8 mice [6]; 6 months of age
  astrogliosis/gliosis vs untreated: decrease in astrogliosis
TgCRND8 mice [6]; 6-months of age
  astrogliosis, percent brain area covered (GFAP): 0.388±0.039%
TgCRND8 mice [6]; 6 months
  microglial activation, % brain area: 0.248±0.02%
TgCRND8 mice [7]
  vascular amyloid burden vs untreated (words): No difference could be detected in the vascular amyloid burden
TgCRND8 mice [8]; listed as epi-inositol
  cognitive function, treated TgCRND8 mice vs non-Tg littermates (words): almost significantly different
non-Tg littermates
  effect on performance of non-Tg mice: had no effect on the performance of non-Tg mice; also recorded: not effected

## OC1C(O)C(O)C(O)C(O)C1O (stereo not drawn) [Allo-inositol, allo-inositol]
TgCRND8 mice [4]; [14]
  effect on insoluble Aβ42 or Aβ40 (soluble and insoluble pools): did not significantly alter
  reduction of soluble Aβ42: 20%
TgCRND8 mice [4]; allo-inositol study: 1 month treatment (28 days) from 5 months of age, mean ± sem
  Brain Aβ42 Insoluble: 16336 ± 910 ng/gm wet brain
TgCRND8 mice [5]; 1 month treatment from 5 months of age, listed as allo-inositol
  effect on plasma Aβ levels in comparison to untreated (words): indistinguishable from untreated TgCRND8 plasma levels
TgCRND8 mice [5]; allo-inositol study: 1 month treatment (28 days) from 5 months of age
  Plasma Aβ Levels: 2458 ± 95 pg/mL
TgCRND8 mice [8]; listed as allo-inositol
  cognitive function, treated TgCRND8 mice vs non-Tg littermates (words): still significantly different from that of their non-transgenic littermates
TgCRND8 mice [8]; [14]
  cognitive function, treated vs untreated TgCRND8 mice (words): performed significantly better than untreated TgCRND8 mice
TgCRND8 mice [9]
  effects on blood chemistry or organ function: do not exhibit obvious deleterious effects on blood chemistry or organ function
TgCRND8 mice [9]; po
  ALP: 95 ± 16 U/L
  ALT: 44 ± 4 U/L
  Albumin: 32 ± 2 g/L
  Bilirubin: 2.9 ± 3 µmol/L
  Creatinine: 69 ± 64 µmol/L
  Globulin: 17 ± 3 g/L
  Glucose: 10 ± 3 mmol/L
  Icteria: Normal
  Lipemia: Normal
  Total protein: 48 ± 2 g/L
  Urea: 18.6 ± 13 mmol/L
